pIC50, pKi: −log10 of the molar value. Structures can show the parent of a compound that is named as a salt. Bounds are passed on as bounds.

As a reminder, the pKi is the Ki on a negative log10 scale, so that one unit is a factor of ten. The term pIC50 denotes the IC50 on a negative log10 scale, so that one unit is a factor of ten.

The target in test [1] is T1, human GlyT1c transporter (Homo sapiens, UniProt P48067).
T1 construct: expressed in transfected cells; host or cells: recombinant hGlyT1-expressing cells
T1 sequence (P48067 1-706): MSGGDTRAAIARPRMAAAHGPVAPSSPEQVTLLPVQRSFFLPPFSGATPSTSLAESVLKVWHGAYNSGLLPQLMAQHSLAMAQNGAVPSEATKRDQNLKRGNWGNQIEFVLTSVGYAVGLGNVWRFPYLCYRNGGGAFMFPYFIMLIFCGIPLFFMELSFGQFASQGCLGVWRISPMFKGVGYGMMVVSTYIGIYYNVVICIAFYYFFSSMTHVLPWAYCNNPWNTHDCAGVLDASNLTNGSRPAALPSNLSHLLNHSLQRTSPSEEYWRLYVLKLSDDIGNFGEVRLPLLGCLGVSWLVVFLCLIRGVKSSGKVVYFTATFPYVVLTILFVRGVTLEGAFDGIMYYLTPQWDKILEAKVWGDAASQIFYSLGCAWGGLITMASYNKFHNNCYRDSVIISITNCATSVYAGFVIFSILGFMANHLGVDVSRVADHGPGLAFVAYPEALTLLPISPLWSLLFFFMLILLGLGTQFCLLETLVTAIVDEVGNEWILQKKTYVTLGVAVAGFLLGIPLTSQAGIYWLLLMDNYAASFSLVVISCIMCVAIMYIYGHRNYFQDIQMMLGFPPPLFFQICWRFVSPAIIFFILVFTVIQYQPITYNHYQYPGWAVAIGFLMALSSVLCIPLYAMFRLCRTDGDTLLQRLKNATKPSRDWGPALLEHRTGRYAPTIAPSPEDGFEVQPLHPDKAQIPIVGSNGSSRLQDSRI
Put plainly: [3H]-(R)-NPTS radioligand binding assay using recombinant hGlyT1 expressing cell membranes. As to conditions: 0.5 nM [3H]-(R)-NPTS, apparent Ki via Cheng-Prusoff, read-out: [3H]-(R)-NPTS bindung Ki. Here is the method: 2. [^3H]-(R)-NPTS Radioligand Binding Assays using Recombinant hGlyT1 Expressing Cell Membranes:
Radioligand binding to human GlyT1c transporter-expressing membranes was measured in duplicate in a total volume of 200 μl in 96-well plates. To 100 μl of membrane suspension (yielding a final membrane protein concentration of 50 μg/ml) in assay buffer (120 mM NaCl, 2 mM KCl, 10 mM Hepes, 1 mM MgCl2, 1 mM CaCl2, pH 7.5) […] of [^3H]-(R)NPTS (0.5 nM final) were added in assay buffer. For competition experiments 10 μl of buffer or unlabeled compound solution obtained from dilution series of test compounds in DMSO followed. An intermediate 1:10 dilution in assay buffer yielded a final DMSO concentration of 1%. Non-specific binding was determined in the presence of 10 μM Org24598 (or its racemate Org24461) for [^3H]-(R)-NPTS. After incubation at room temperature for 1 h, the incubation mixture was harvested (Tomtec Mach III U Harvester) through 96-well GF/B filter plates (PerkinElmer), presoaked for 1 h with 40 μl per well of 0.1% polyethylene-imine (PEI). After washing twice with ice-cold 50 mM Tris-HCl pH 7.4 buffer, drying and addition of 35 μl scintillator (BetaplateScint, PerkinElmer) per well followed. The radioactivity was determined by liquid scintillation spectrometry in a MicroBeta (PerkinElmer) plate counter.
Data analysis: For binding of [^3H]-(R)-NPTS to cell membranes, the calculation of Kd and Bmax values from the saturation binding assays and the IC50 values from the displacement binding was performed by iterative non-linear regression analysis adapted from the ‘Ligand’ program (Munson and Rodbard, 1980). Radioligand displacement curves in absence or in presence of increasing concentrations of tested compounds were fitted using a one-site fit and the apparent Ki values were calculated from the IC50 values using the Cheng-Prusoff equation (Cheng and Prusoff 1973).

The target of test [2] is T2, Human GlyT1c (Homo sapiens, UniProt P48067).
T2 construct: expressed in transfected cells; host or cells: CHO (hGlyT1c_5_CHO clone)
T2 sequence (P48067 1-706): T1 sequence (P48067 1-706)
Put plainly: Glycine uptake in recombinant hGlyT1 expressing cells. It counts as cell-based. As to conditions: hGlyT1c_5_CHO cells; [3H]-glycine uptake, 60-120 min. Here is the method: 1. Glycine Uptake in Recombinant hGlyT1 Expressing Cells:
Human GlyT1c expressing recombinant hGlyT1c—5_CHO cells were plated at 20,000 cells per well in 96 well Cytostar-T scintillation microplates (Amersham Biosciences) and cultured to sub-confluency for 24 h. For glycine uptake assays the culture medium was aspirated and the cells were washed once with 100 μl HBSS (Gibco BRL, #14025-050) with 5 mM L-Alanine (Merck #1007). 80 μl HBSS buffer were added, followed by 10 μl inhibitor or vehicle (10% DMSO) and 10 μl [^3H]-glycine (TRK71, Amersham Biosciences) to a final concentration of […] for initiation of glycine uptake. The plates were placed in a Wallac Microbeta (PerkinElmer) and continuously counted by solid phase scintillation spectrometry during up to 3 hours. Nonspecific uptake was determined in the presence of 10 μM Org24598. IC50 calculations were made by four-parametric logistic nonlinear regression analysis (GraphPad Prism) using determinations within the range of linear increase of [^3H]-glycine incorporation between 60 and 120 min.

In the case of `Cc1cc(NCc2ccc(Cl)cc2Cl)c2cccc(OCCNS(C)(=O)=O)c2n1` [Example 38, N-{2-[4-(2,4-Dichlorobenzylamino)-2-methylquinolin-8-yloxy]-ethyl}-methanesulfonamide], the pKi in test [1] is at least 7.00. Further, in test [2], the pIC50 was at least 6.00.

Consider `Cc1cc(NCc2ccc(Cl)cc2Cl)c2cccc(OCCNS(=O)(=O)CC(C)C)c2n1` [Example 39, 2-Methylpropane-1-sulfonic {2-[4-(2,4-dichlorobenzylamino)-2-methylquinolin-8-yloxy]-ethyl}-amide], for which the pKi in test [1] is at least 7.00. Moreover, the pIC50 in test [2] was at least 6.00.

As to `Cc1cc(N[C@@H](c2ccccc2)[C@@H]2CCCCN2)c2cccc(OCCNS(=O)(=O)c3cccnc3)c2n1` [Example 40, Pyridin-3-sulfonic (2-{2-methyl-4-[((S)-phenyl-(S)-piperidin-2-yl-methyl)-amino]-quinolin-8-yloxy}-ethyl)-amide dihydrochloride], the pKi in test [1] is at least 7.00. The pIC50 in test [2] is at least 5.00.

As to `Cc1cc(NCc2ccc(Cl)c(Cl)c2)c2cccc(O)c2n1` [Example 41, 4-(3,4-Dichlorobenzylamino)-2-methylquinolin-8-ol], the pKi in test [1] is at least 7.00. The pIC50 in test [2] was at least 6.00.

Turning to `Cc1cc(NCc2ccc(Cl)c(Cl)c2)c2cccc(OC(C)C)c2n1` [Example 42, (3,4-Dichlorobenzyl)-(8-isopropoxy-2-methylquinolin-4-yl)-amine hydrochloride], in test [1], the pKi was at least 7.00. Moreover, the pIC50 in test [2] was at least 7.00.

Take `CCCOc1cccc2c(NCc3ccc(Cl)c(Cl)c3)cc(C)nc12` [Example 43, (3,4-Dichlorobenzyl)-(2-methyl-8-propoxyquinolin-4-yl)-amine]: the pKi in test [1] is at least 7.00. Further, in test [2], the pIC50 is at least 6.00.

As for `Cc1cc(NCc2ccc(Cl)c(Cl)c2)c2cccc(Oc3ccccc3)c2n1` [Example 44, (3,4-Dichlorobenzyl)-(2-methyl-8-phenoxyquinolin-4-yl)-amine], the pKi in test [1] is at least 6.00. For the same compound, in test [2], the pIC50 was at least 6.00.

With `CCCOc1cccc2c(NCc3ccc(C(F)(F)F)c(Cl)c3)cc(C)nc12` [Example 45, (3-Chloro-4-trifluoromethylbenzyl)-(2-methyl-8-propoxyquinoline-4-yl)-amine hydrochloride], in test [1], the pKi was at least 5.00. Besides, in test [2], the pIC50 was at least 5.00.

In the case of `Cc1cc(NCc2ccc(Cl)c(Cl)c2)c2cccc(OCc3ccccc3)c2n1` [Example 46, (8-Benzyloxy-2-methylquinolin-4-yl)-(3,4-dichlorobenzyl)-amine], the pKi in test [1] is at least 7.00. In test [2], the pIC50 is at least 6.00.

As for `Cc1cc(NCc2ccc(Cl)c(Cl)c2)c2cccc(OCCn3cccn3)c2n1` [Example 47, (3,4-Dichlorobenzyl)-[2-methyl-8-(2-pyrazol-1-yl-ethoxy)-quinolin-4-yl]-amine hydrochloride], in test [1], the pKi was at least 7.00. Moreover, the pIC50 in test [2] is at least 6.00.

Take `Cc1cc(NCc2ccc(Cl)c(Cl)c2)c2cccc(OCCN3CCOCC3)c2n1` [Example 48, (3,4-Dichlorobenzyl)-[2-methyl-8-(2-morpholin-4-yl-ethoxy)-quinolin-4-yl]-amine dihydrochloride]: in test [1], the pKi was at least 7.00. The pIC50 in test [2] was at least 7.00.

Turning to `COCCOc1cccc2c(NCc3ccc(Cl)c(Cl)c3)cc(C)nc12` [Example 49, (3,4-Dichlorobenzyl)-[8-(2-methoxyethoxy)-2-methylquinolin-4-yl]-amine], the pKi in test [1] is at least 7.00. Besides, in test [2], the pIC50 is at least 7.00.

With `Cc1cc(NCc2ccc(Cl)c(Cl)c2)c2cccc(OCCN(C)C)c2n1` [Example 50, (3,4-Dichlorobenzyl)-[8-(2-dimethylamino-ethoxy)-2-methylquinolin-4-yl]-amine dihydrochloride], in test [1], the pKi is at least 7.00. In addition, in test [2], the pIC50 was at least 6.00.

As to `Cc1cc(NCc2ccc(Cl)c(Cl)c2)c2cccc(OCC(C)C)c2n1` [Example 51, (3,4-Dichlorobenzyl)-(8-isobutoxy-2-methylquinolin-4-yl)-amine], the negative logarithm of the Ki (pKi) in test [1] was at least 6.00. In addition, in test [2], the pIC50 is at least 6.00.

On to `Cc1cc(NCc2ccc(Cl)c(Cl)c2)c2cccc(OCCN3CCCC3)c2n1` [Example 52, (3,4-Dichlorobenzyl)-[2-methyl-8-(2-pyrrolidin-1-yl-ethoxy)-quinolin-4-yl]-amine], for which the pKi in test [1] was at least 7.00. In test [2], the pIC50 was at least 6.00.

As for `C=CCN1CCCC[C@H]1[C@@H](Nc1cc(C)nc2c(OC)cccc12)c1ccccc1` [Example 53, [(S)—((S)-1-Allylpiperidin-2-yl)-phenylmethyl]-(8-methoxy-2-methylquinolin-4-yl)-amine], the pKi in test [1] was at least 5.00. Also, the pIC50 in test [2] is at least 4.00.

As for `COc1cccc2c(N[C@@H](c3ccccc3)[C@@H]3CCCCN3)cc(C)nc12` [Example 54, (8-Methoxy-2-methylquinolin-4-yl)-((S)-phenyl-(S)-piperidin-2-yl-methyl)-amine], the pKi in test [1] is at least 6.00. The pIC50 in test [2] is at least 6.00.

`Cc1cc(NCc2ccc(Cl)c(Cl)c2)c2cccc(Oc3ccccn3)c2n1` [Example 55, (3,4-Dichlorobenzyl)-[2-methyl-8-(pyridin-2-yloxy)-quinolin-4-yl]-amine]: in test [1], the pKi is at least 6.00. Moreover, the pIC50 in test [2] was at least 5.00.

As to `Cc1cc(NCc2ccc(Cl)c(Cl)c2)c2cccc(OC(F)(F)F)c2n1` [Example 56, (3,4-Dichloro-benzyl)-(2-methyl-8-trifluoromethoxyquinolin-4-yl)-amine], the pKi in test [1] is at least 6.00. Also, the pIC50 in test [2] is at least 7.00.

On to `COc1cccc2c(N[C@@H](C)c3ccc(Cl)cc3)cc(C)nc12` [Example 57, [(S)-1-(4-Chlorophenyl)-ethyl]-(8-methoxy-2-methylquinolin-4-yl)-amine], for which, in test [1], the pKi is at least 5.00. In test [2], the pIC50 is at least 4.00.

Regarding `COc1cccc2c(N[C@H](C)c3ccc(Cl)cc3)cc(C)nc12` [Example 58, [(R)-1-(4-Chlorophenyl)-ethyl]-(8-methoxy-2-methylquinolin-4-yl)-amine], in test [1], the pKi is at least 7.00. Further, the pIC50 in test [2] was at least 6.00.

`C=CCN1CCCC[C@H]1[C@@H](Nc1cc(C)nc2ccccc12)c1ccccc1` [Example 59, [(S)—((S)-1-Allylpiperidin-2-yl)-phenylmethyl]-(2-methylquinolin-4-yl)-amine]: the pKi in test [1] was at least 5.00. In test [2], the pIC50 is at least 4.00.

Take `Cc1cc(N[C@@H](c2ccccc2)[C@@H]2CCCCN2)c2ccccc2n1` [Example 60, (2-Methylquinolin-4-yl)-((S)-phenyl-(S)-piperidin-2-yl-methyl)-amine]: the pKi in test [1] is at least 6.00. Moreover, in test [2], the pIC50 was at least 6.00.

`Cc1cc(N[C@@H](c2ccccc2)[C@@H]2CCCCN2C)c2ccccc2n1` [Example 61, (S)—((S)-1-Methylpiperidin-2-yl)-phenylmethyl]-(2-methylquinolin-4-yl)-amine dihydrochloride]: the pKi in test [1] is at least 5.00. In addition, in test [2], the pIC50 is at least 5.00.

The values are drawn from patent US8420670B2 (Abbott Laboratories, priority 2007, dated 2013).
